Read-outs that look alike come from different tables or passages of the source.
How the values were obtained:
[1] = target: T1, FL-SMARCA2 (full-length human SMARCA2 isoform 1) (Homo sapiens, UniProt P51531); assay: SMARCA2 ATPase activity assay (ADP-Glo, chicken mononucleosome substrate); assay type: biochemical; details: ATP 250 uM
T1 construct: FLAG tag (YKDDDDK) (C); made in house; host or cells: Sf21 insect cells (baculovirus, pFastBacI)
Description: Molecular Biology: Full-length human SMARCA2 isoform 1 (P51531) transcript clone was amplified from a cDNA library incorporating an N-terminal HIS tag ([…]) fused directly to Ser2 of SMARCA2 and a C-FLAG tag (YKDDDDK) fused directly to Glu1590 of SMARCA2. The amplified gene was subcloned into pFastBacI (Life Technologies).
Protein Expression: Recombinant baculovirus were generated and protein over-expression was accomplished by infecting exponentially growing Sf21 insect cell culture at 1.24×10^6 cell/ml with an MOI of 0.1. Infections were carried out for 76 hours, harvested by centrifugation, and stored at −80° C. for purification.
Expressed full-length SMARCA2 was purified from cell paste by FLAG affinity chromatography followed by anion exchange chromatography. The protein was dialyzed into a storage buffer containing 25 mM HEPES, 300 mM KCl, 10% Glycerol, pH 7.9, 1 mM TCEP and 0.01% Tween-20. The purity of the protein was measured as 74% using micro-capillary based gel electrophoresis.

[2] = target: FL-SMARCA4 (Homo sapiens, UniProt P51532); assay: SMARCA4 ATPase activity assay (ADP-Glo, chicken mononucleosome substrate)
Chain of FL-SMARCA4 (P51532 whole entry): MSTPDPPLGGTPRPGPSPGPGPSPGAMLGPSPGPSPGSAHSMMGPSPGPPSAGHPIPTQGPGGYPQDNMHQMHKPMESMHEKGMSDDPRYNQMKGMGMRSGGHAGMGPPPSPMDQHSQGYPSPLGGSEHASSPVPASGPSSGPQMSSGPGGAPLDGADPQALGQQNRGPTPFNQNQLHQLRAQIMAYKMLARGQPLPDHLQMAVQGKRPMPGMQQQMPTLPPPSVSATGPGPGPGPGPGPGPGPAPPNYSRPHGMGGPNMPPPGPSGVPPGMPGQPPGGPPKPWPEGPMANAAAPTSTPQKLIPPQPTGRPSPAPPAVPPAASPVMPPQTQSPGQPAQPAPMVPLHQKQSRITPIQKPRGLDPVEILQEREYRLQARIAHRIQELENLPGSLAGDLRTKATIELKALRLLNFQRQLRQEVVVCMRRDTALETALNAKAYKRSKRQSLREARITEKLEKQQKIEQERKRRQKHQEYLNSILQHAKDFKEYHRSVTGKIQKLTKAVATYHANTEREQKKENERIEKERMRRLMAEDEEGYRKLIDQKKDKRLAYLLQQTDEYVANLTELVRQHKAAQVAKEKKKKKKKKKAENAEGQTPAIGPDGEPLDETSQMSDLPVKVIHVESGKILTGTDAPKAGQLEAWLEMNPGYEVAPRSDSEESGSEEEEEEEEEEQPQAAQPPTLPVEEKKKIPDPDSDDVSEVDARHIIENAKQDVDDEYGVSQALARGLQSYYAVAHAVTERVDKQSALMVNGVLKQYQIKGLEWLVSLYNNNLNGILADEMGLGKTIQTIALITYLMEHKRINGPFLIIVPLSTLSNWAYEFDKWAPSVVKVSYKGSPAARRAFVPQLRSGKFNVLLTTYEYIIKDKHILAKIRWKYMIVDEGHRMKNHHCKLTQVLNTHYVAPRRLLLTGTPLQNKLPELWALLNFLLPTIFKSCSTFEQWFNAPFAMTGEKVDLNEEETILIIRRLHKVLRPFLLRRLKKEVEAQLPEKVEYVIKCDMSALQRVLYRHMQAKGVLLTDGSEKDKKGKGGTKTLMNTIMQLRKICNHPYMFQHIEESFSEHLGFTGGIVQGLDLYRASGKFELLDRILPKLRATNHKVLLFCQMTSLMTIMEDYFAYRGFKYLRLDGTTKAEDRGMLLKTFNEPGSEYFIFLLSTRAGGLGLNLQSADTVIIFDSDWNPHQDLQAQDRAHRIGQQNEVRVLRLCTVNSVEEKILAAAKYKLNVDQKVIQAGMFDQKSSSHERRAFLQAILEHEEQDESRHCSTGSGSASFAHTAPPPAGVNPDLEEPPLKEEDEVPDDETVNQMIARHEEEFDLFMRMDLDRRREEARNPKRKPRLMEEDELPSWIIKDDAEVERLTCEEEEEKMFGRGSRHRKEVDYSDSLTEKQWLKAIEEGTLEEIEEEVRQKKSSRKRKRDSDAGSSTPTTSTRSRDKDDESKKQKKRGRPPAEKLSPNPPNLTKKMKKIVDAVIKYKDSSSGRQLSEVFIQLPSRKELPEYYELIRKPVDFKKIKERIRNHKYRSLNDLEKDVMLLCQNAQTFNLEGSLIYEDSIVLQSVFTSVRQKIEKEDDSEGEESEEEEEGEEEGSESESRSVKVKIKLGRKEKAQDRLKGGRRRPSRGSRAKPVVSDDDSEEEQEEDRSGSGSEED

[3] = Table 3a.1, SMARCA2 5 nM, mononucleosome 10 nM
[4] = FL-SMARCA4 IC50, Table 3a.2, SMARCA4 5 nM, ATP 250 uM, mononucleosome 10 nM
[5] = Table 3d.1, ATPase assay, enzyme 5 nM, chicken mononucleosome 10 nM, 30 min preincubation, read-out: FL-SMARCA2 IC>50
[6] = Table 3.1, ATPase assay, enzyme 5 nM, chicken mononucleosome 10 nM, 30 min preincubation
[7] = FL-SMARCA4 IC50, Table 3.2, ATPase assay, enzyme 5 nM, ATP 250 uM, chicken mononucleosome 10 nM, 30 min preincubation
[8] = Table 3c.1, ATPase assay, enzyme 5 nM, chicken mononucleosome 10 nM, 30 min preincubation
[9] = FL-SMARCA4 IC>50, Table 3c.2, ATPase assay, enzyme 5 nM, ATP 250 uM, chicken mononucleosome 10 nM, 30 min preincubation

T1 sequence (P51531 with tags, fused parts or gaps): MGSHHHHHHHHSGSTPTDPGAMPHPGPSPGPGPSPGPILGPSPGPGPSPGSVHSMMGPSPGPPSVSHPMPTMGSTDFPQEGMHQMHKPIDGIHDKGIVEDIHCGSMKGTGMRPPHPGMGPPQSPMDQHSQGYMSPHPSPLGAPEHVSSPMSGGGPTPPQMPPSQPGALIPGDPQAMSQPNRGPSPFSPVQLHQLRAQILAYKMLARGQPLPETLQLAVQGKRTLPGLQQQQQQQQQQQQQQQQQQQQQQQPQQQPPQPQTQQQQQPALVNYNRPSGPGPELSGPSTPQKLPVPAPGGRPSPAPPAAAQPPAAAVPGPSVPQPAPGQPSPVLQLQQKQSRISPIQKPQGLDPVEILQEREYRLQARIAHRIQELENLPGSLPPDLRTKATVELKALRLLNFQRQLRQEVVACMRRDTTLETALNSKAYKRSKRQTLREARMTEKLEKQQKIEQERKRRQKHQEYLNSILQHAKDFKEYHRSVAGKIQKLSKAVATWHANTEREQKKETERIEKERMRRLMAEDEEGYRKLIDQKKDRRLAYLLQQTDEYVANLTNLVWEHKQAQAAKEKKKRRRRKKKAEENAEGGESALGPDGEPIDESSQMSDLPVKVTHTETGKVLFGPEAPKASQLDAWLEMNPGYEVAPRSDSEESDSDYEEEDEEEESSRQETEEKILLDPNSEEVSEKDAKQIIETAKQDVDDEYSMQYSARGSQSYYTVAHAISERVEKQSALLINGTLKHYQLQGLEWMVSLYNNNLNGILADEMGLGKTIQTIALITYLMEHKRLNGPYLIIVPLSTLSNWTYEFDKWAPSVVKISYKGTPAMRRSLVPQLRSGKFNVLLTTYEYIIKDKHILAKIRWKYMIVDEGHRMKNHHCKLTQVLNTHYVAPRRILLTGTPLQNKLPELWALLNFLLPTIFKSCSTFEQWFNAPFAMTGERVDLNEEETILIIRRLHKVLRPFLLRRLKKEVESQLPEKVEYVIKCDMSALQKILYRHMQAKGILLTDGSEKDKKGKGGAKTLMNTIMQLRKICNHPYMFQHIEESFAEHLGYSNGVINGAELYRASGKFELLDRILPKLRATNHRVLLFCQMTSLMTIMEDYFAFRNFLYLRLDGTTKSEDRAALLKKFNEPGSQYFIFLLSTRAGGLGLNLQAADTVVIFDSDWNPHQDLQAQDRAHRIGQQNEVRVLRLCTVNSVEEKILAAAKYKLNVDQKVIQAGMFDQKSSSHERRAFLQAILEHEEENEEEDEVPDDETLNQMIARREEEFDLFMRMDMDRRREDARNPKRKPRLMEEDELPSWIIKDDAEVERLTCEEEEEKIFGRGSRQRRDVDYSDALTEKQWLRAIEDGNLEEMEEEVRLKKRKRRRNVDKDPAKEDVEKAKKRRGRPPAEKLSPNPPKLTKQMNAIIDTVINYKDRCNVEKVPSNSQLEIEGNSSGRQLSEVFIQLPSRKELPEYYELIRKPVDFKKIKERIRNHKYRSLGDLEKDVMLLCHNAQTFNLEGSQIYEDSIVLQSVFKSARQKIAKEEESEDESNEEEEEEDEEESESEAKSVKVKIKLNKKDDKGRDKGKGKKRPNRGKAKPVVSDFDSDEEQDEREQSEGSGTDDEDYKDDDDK

IC50 [1, 3]	IC50 [2, 4]	IC50 [1, 5]	IC50 ([2]; FL-SMARCA4 IC50)	SMILES	other results
> 50 µM	> 50 µM	–	–	CCn1cc(NC(=O)c2cccc(Cl)n2)ccc1=O [Compound 25a]	–
–	–	> 50 µM	> 50 µM	CCn1c(C)c(NC(=O)c2cc(Cl)c(Cl)s2)ccc1=O [Compound 25d]	–
–	–	–	–	CCn1cc(NC(=O)c2ccc(F)s2)ccc1=O [Compound 26]	IC50 [1, 6]: 19.6 µM; IC50 [2, 7]: > 50 µM
> 50 µM	> 50 µM	–	–	CCn1cc(NC(=O)c2ccc3ccccc3n2)ccc1=O [Compound 26a]	–
–	–	–	–	O=C(Nc1cc(C#CC(F)(F)F)c(=O)n(CC(F)F)c1)c1cc(F)c(Cl)s1 [Compound 26c]	IC50 [1, 8]: 5.41 µM; IC50 [2, 9]: 6.27 µM
–	–	> 50 µM	> 50 µM	CCn1cc(NC(=O)c2cc(Cl)c(Cl)s2)c(C)cc1=O [Compound 26d]	–
> 50 µM	> 50 µM	–	–	CCn1cc(NC(=O)c2cn(C)c3c(Cl)cccc23)ccc1=O [Compound 27a]	–
–	–	–	–	Cn1cnc(-c2cc(NC(=O)c3sc(C(F)(F)F)cc3Cl)cn(CC(F)F)c2=O)c1 [Compound 27c]	IC50 [1, 8]: > 50 µM; IC50 [2, 9]: > 50 µM
–	–	> 50 µM	> 50 µM	CCn1c(Cl)c(NC(=O)c2cc(Cl)c(Cl)s2)ccc1=O [Compound 27d]	–
> 50 µM	> 50 µM	–	–	CCn1cc(NC(=O)c2cccc(C)n2)ccc1=O [Compound 28a]	–
–	–	–	–	NCCCn1cc(NC(=O)c2cc(F)c(Cl)s2)cc(F)c1=O [Compound 28c]	IC50 [1, 8]: > 50 µM; IC50 [2, 9]: > 50 µM
–	–	> 50 µM	> 50 µM	CCc1cc(=O)n(CC)cc1NC(=O)c1cc(Cl)c(Cl)s1 [Compound 28d]	–
> 50 µM	> 50 µM	–	–	CCn1cc(NC(=O)c2cnc3c(Cl)cccn23)ccc1=O [Compound 29a]	–
–	–	–	–	CN1CCC(C#Cc2cc(C(=O)Nc3cc(F)c(=O)n(CC(F)F)c3)sc2Cl)CC1 [Compound 29c]	IC50 [1, 8]: 25.4 µM; IC50 [2, 9]: 41.4 µM
–	–	> 50 µM	> 50 µM	CCn1c(F)c(NC(=O)c2cc(Cl)c(Cl)s2)ccc1=O [Compound 29d]	–
> 50 µM	> 50 µM	–	–	CCn1cc(NC(=O)c2ccccn2)ccc1=O [Compound 30a]	–

IC50 [1, 3]	IC50 [2, 4]	IC50 [1, 5]	IC50 ([2]; FL-SMARCA4 IC50)	SMILES	other results
–	–	–	–	O=C(Nc1cc(-c2ncco2)c(=O)n(CC(F)F)c1)c1sc(C(F)(F)F)cc1Cl [Compound 30c]	IC50 [1, 8]: > 50 µM; IC50 [2, 9]: > 50 µM
–	–	> 50 µM	> 50 µM	CCc1c(NC(=O)c2cc(Cl)c(Cl)s2)ccc(=O)n1CC [Compound 30d]	–
> 50 µM	> 50 µM	–	–	CCn1cc(NC(=O)n2ncc3ccccc32)ccc1=O [Compound 31a]	–
–	–	–	–	O=C(Nc1cc(-c2c[nH]cn2)c(=O)n(CC(F)F)c1)c1sc(C(F)(F)F)cc1Cl [Compound 31c]	IC50 [1, 8]: > 50 µM; IC50 [2, 9]: > 50 µM
–	–	48.1 µM	> 50 µM	CCn1cc(NC(=O)c2cc(Cl)c(Cl)s2)c(F)cc1=O [Compound 31d]	–
–	–	–	–	CCn1nc(C(=O)Nc2ccc(=O)n(CC)c2)cc1C [Compound 32]	IC50 [1, 6]: > 50 µM; IC50 [2, 7]: > 50 µM
> 50 µM	> 50 µM	–	–	CCn1cc(NC(=O)c2nc3cc(Cl)c(F)cc3[nH]2)ccc1=O [Compound 32a]	–
–	–	–	–	NCCn1cc(NC(=O)c2cc(F)c(Cl)s2)cc(F)c1=O [Compound 32c]	IC50 [1, 8]: 5.67 µM; IC50 [2, 9]: 12.5 µM
–	–	> 50 µM	> 50 µM	Cc1cc(=O)[nH]cc1NC(=O)c1ccc(C(F)(F)F)nc1C [Compound 32d]	–
–	–	–	–	CCn1cc(NC(=O)c2cc(C)sc2C)ccc1=O [Compound 33]	IC50 [1, 6]: > 50 µM; IC50 [2, 7]: > 50 µM
> 50 µM	> 50 µM	–	–	CCn1cc(NC(=O)c2ccc(Cl)c(Cl)n2)ccc1=O [Compound 33a]	–
–	–	–	–	O=C(Nc1cc(F)c(=O)n(CC(F)F)c1)c1cnc(C#Cc2ccncc2)s1 [Compound 33c]	IC50 [1, 8]: 8.9 µM; IC50 [2, 9]: 8.15 µM
–	–	> 50 µM	> 50 µM	Cc1nc(-c2ccc(C(=O)Nc3cc(F)c(=O)n(CC(F)F)c3)s2)cs1 [Compound 33d]	–
> 50 µM	> 50 µM	–	–	CCn1cc(NC(=O)c2cc3c(n2C)CCC3)ccc1=O [Compound 34a]	–
–	–	> 50 µM	> 50 µM	O=C(Nc1cc(F)c(=O)n(CC(F)F)c1)c1ccc(-c2ccccn2)s1 [Compound 34d]	–
–	–	–	–	CCn1cc(NC(=O)c2coc(Br)n2)ccc1=O [Compound 35]	IC50 [1, 6]: > 50 µM; IC50 [2, 7]: > 50 µM
